Laboratory results: the supplement of paper PMC10307832

Key:
Test in all cases: relative viability (nuclei count vs DMSO), 5 days (fraction); higher = more cells survive
Etoposide + Luminespib = compound: COc1cc([C@@H]2c3cc4c(cc3[C@@H](O[C@@H]3O[C@@H]5CO[C@@H](C)O[C@H]5[C@H](O)[C@H]3O)[C@H]3COC(=O)[C@H]23)OCO4)cc(OC)c1O [Etoposide] + CCNC(=O)c1noc(-c2cc(C(C)C)c(O)cc2O)c1-c1ccc(CN2CCOCC2)cc1 [Luminespib] (partner 0.01 µM)
Summary of the method: (§1)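 Lung cancer cell lines in 1536-well plates got either a single drug or a fixed anchor-drug dose together with five library-drug doses (not always all listed) in √10 steps, by pin tool, on the day after seeding. Nuclei were counted after 5 days, and relative viability is the treated-to-vehicle ratio of nuclei counts. Values are medians of duplicate plates.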

Etoposide + Foretinib = compound: COc1cc([C@@H]2c3cc4c(cc3[C@@H](O[C@@H]3O[C@@H]5CO[C@@H](C)O[C@H]5[C@H](O)[C@H]3O)[C@H]3COC(=O)[C@H]23)OCO4)cc(OC)c1O [Etoposide] + COc1cc2c(Oc3ccc(NC(=O)C4(C(=O)Nc5ccc(F)cc5)CC4)cc3F)ccnc2cc1OCCCN1CCOCC1 [Foretinib] (partner 0.25 µM)
Summary of the method: as §1

Etoposide + Pictilisib = compound: COc1cc([C@@H]2c3cc4c(cc3[C@@H](O[C@@H]3O[C@@H]5CO[C@@H](C)O[C@H]5[C@H](O)[C@H]3O)[C@H]3COC(=O)[C@H]23)OCO4)cc(OC)c1O [Etoposide] + CS(=O)(=O)N1CCN(Cc2cc3nc(-c4cccc5[nH]ncc45)nc(N4CCOCC4)c3s2)CC1 [Pictilisib] (partner 1 µM)
Summary of the method: as §1

Etoposide + Linsitinib = compound: COc1cc([C@@H]2c3cc4c(cc3[C@@H](O[C@@H]3O[C@@H]5CO[C@@H](C)O[C@H]5[C@H](O)[C@H]3O)[C@H]3COC(=O)[C@H]23)OCO4)cc(OC)c1O [Etoposide] + C[C@]1(O)C[C@@H](c2nc(-c3ccc4ccc(-c5ccccc5)nc4c3)c3c(N)nccn32)C1 [Linsitinib] (partner 1 µM)
Summary of the method: as §1

UMC-11
relative viability (Etoposide + Luminespib; first compound 0.01 µM): 1
relative viability (Etoposide + Luminespib; first compound 0.03162 µM): 1.09
relative viability (Etoposide + Luminespib; first compound 0.1 µM): 0.783
relative viability (Etoposide + Luminespib; first compound 0.3162 µM): 0.566
relative viability (Etoposide + Luminespib; first compound 1 µM): 0.279
relative viability (Etoposide + Foretinib; first compound 0.01 µM): 1.1
relative viability (Etoposide + Foretinib; first compound 0.03162 µM): 1.17
relative viability (Etoposide + Foretinib; first compound 0.1 µM): 0.928
relative viability (Etoposide + Foretinib; first compound 0.3162 µM): 0.566
relative viability (Etoposide + Foretinib; first compound 1 µM): 0.322
relative viability (Etoposide + Pictilisib; first compound 0.01 µM): 0.837
relative viability (Etoposide + Pictilisib; first compound 0.03162 µM): 0.938
relative viability (Etoposide + Pictilisib; first compound 0.3162 µM): 0.339
relative viability (Etoposide + Pictilisib; first compound 1 µM): 0.194
relative viability (Etoposide + Linsitinib; first compound 0.01 µM): 0.962
relative viability (Etoposide + Linsitinib; first compound 0.03162 µM): 1.05
relative viability (Etoposide + Linsitinib; first compound 0.3162 µM): 0.493
relative viability (Etoposide + Linsitinib; first compound 1 µM): 0.302
